Laboratory results published in patent US11247985B2, “Phenyl indole allosteric inhibitors of P97 ATPase” (University of Pittsburgh—Of the Commonwealth System of …, priority 2015, dated 2022).

Target: p97 ATPase WT (Homo sapiens (Human), UniProt P55072)
Test: p97 ADP-Glo assay
Assay type: biochemical
Conditions: Table 3; read-out: ADPGlo IC50
From the text: ADP-Glo™ (Promega Corp.) is a bioluminescent, homogeneous assay that measures ADP formed from a biochemical reactions. Because of its high sensitivity, the assay is suitable for monitoring enzyme activities at very early substrate conversions requiring very low amount of enzymes.
The ADP-Glo assay can be conducted as described in Chou, T.-F.; Bulfer, S. L.; Weihl, C.

Sequence of p97 ATPase WT (P55072 whole entry): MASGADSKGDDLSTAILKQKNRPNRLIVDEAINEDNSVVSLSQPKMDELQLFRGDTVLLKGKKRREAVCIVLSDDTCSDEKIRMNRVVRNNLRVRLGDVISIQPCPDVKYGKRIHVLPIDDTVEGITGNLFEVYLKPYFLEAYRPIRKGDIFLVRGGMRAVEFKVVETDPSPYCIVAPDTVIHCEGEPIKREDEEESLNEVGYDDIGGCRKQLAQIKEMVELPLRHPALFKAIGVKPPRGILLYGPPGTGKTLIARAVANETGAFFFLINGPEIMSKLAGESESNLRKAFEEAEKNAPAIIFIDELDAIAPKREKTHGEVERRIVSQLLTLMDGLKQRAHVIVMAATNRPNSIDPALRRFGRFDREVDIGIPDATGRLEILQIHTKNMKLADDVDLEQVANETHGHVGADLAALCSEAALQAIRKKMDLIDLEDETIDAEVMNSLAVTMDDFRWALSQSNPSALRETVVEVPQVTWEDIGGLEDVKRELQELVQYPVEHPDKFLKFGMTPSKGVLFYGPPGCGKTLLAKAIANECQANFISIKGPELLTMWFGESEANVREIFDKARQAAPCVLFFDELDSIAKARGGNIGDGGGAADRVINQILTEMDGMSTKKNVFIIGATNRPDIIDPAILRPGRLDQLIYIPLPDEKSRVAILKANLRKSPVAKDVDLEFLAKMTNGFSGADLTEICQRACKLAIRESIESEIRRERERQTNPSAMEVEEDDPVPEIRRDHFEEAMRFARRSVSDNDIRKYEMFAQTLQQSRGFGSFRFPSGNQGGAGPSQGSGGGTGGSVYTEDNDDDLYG

Row | Structure (SMILES) | IC50 [µM]
1 | CC(C)N1CCC(NC2CCN(c3cccc(-c4cc5cc(S(=O)(=O)NCc6ccccc6)ccc5[nH]4)c3)CC2)CC1 | 7.5
2 | O=S1(=O)CCN(CCNC2CCN(c3cccc(-c4cc5ccccc5[nH]4)c3)CC2)CC1 | 0.7
